Experimental data reported in patent publication US11389465B2, “Phosphorylated hexaacyl disaccharides (PHADs) for treating or preventing infections” (VANDERBILT UNIVERSITY, priority 2017, dated 2022).

Legend:
C. albicans = test: Systemic (intravenous) C. albicans infection in MPLA-primed mice (FIG. 2); format: in vivo; details: MPLA 20 μg; intravenous C. albicans 1×10^8 CFU
Procedure: (§1) FIG. 2. MPLA induces resistance to S. aureus and C. albicans infection. A) WT BALB/c mice were injected with intravenous MPLA (20 μg/mouse) or vehicle one and two days prior to intravenous inoculation with intravenous 10^8 cfu S. aureus or 10^8 cfu C. albicans. B) Kaplan Meier survival curve of vehicle- and MPLA-primed mice. (n=12 mice/group) after S. aureus inoculation. C) Core (rectal) body temperature assessed daily after S. aureus inoculation. D) S. aureus cfu per gram of tissue recoverable from whole spleen, lung, and kidney in vehicle and MPLA-primed mice at 3 days after S. aureus inoculation. E) Concentration of serum IL-6 2 hours after S. aureus inoculation or vehicle. F) Concentration of serum BUN 3 days after S. aureus inoculation or vehicle. G) Kaplan Meier survival curve of vehicle- and MPLA-primed mice. (n=12 mice/group) after intravenous 10^8 cfu C. albicans inoculation. H) Core (rectal) body temperature after C. albicans inoculation. Data shown as mean+/−SEM. For Kaplan-Meier plots *, p<0.05 via log-rank Mantel-Cox test. Otherwise, *, p<0.05 as determined by ANOVA with Tukey's post-hoc multiple comparison test.
(§2) MPLA is also effective in improving survival in models of systemic S. aureus and C. albicans infection. Mice treated with MPLA (20 μg) after a 20% cutaneous burn received intravenous challenge with S. aureus or C. albicans (1×10^8 CFU) on day 5 post-burn (FIG. 2).

Staphylococcus aureus = test: Systemic S. aureus infection after MPLA or PHADs (FIG. 8); format: in vivo, mice; details: 20 μg/mouse on day 0 and day 1; S. aureus 1×10^8 intravenously on day 2
Procedure: FIG. 8. PHADs induce bacterial clearance and promote survival post systemic S. aureus infection. […] (B) In one set of experiments, mice were euthanized at 72 hours post-infection and lung, spleen, and kidney tissues were harvested to measure bacterial burden. (C) In a separate set of experiments, mice underwent the same treatment with MPLA or PHADs, followed by infection with S. aureus. However, this group is monitored for 14 days to assess for survival. *p<0.05 compared to vehicle. N=13-16/group in the 3 day clearance experiments, performed in quadruplicate, and n=9-10/group, performed in triplicate.
In addition, mice were analyzed for survival after intravenous Staphylococcus aureus infection with treatment of MPLA or PHADs. At Day 0, mice were treated with vehicle, MPLA or PHADs (20 μg/mouse). At Day 1, mice were treated with vehicle, MPLA or PHADs (20 μg/mouse). At Day 2, mice were infected with Staphylococcus aureus (1×10^8 intravenously) and followed for survival.

[1] = Physiological response of non-burned sheep to MPLA infusion (FIG. 6); format: in vivo; details: 1 hour monitoring
Procedure: FIG. 6. Effects of MPLA infusion at the indicated doses over 10 minutes. Endpoints were recorded over a 1 hour period beginning at the end of the MPLA infusion.
In further studies, the response of sheep to MPLA infusion was assessed (FIG. 6). Instrumented sheep received infusions of MPLA at doses of 5, 10 or 30 ug/kg in 10 ml of endotoxin-free lactated Ringer's solution over 10 minutes. Physiological parameters were monitored for 1 hour after MPLA infusion. […] These observations indicate that sheep have sensitivity to MPLA that is very similar to humans.

[2] = system: Bone marrow derived macrophages (BMDMs); test: Metabolic reprogramming of bone marrow derived macrophages by MPLA (FIG. 11); format: cell-based; details: 1 μg/mL MPLA for 24 hours
Procedure: FIG. 11. MPLA drives persistent and dynamic metabolic reprogramming in macrophages. A) Bone marrow derived macrophages (BMDMs) were primed with 1 μg/mL MPLA for 24 hours, washed, and rested for 3 days (3 dp macrophages). These macrophages were compared to BMDMs stimulated with 1 μg/mL MPLA for 24 hours prior to assessment (24 hr macrophages) and untreated BMDMs (control). B) Glycolysis stress test of macrophages as determined by the Seahorse Xf^e96. C) Maximal extracellular acidification rate (ECAR) derived after the addition of oligomycin in the glycolysis stress test D) Glucose consumed from BMDMs over 24 hours, as determined by glucose concentration in cell-free medium subtracted by cell-containing medium. E) Lactate produced by BMDMs over 24 hours, as determined by lactate in cell-containing medium subtracted by cell free medium. F) Basal oxygen consumption rate (OCR) determined after the addition of glucose in the glycolysis stress test. G) Mitochondrial stress test of BMDMs as determined by the Seahorse Xfi96. H) Maximal oxidative rate derived after the addition of FCCP in the mitochondrial stress test. I) Intracellular ATP from BMDMs as determined by luminescence assay. Some BMDMs were exposed to 10 mM 2-DG or IlpM oligomycin for 3 hours prior to the assay. J) MitoTracker Green staining of BMDMs as determined by flow cytometry. K) Mitochondrial DNA (mtDNA)/nuclear DNA (nucDNA) as determined by qPCR. L) Succinate dehydrogenase (SDHA), citrate synthase (CS), and β-actin as determined by western blot. All bands shown derived from the same samples. […] Densitometry of SDHA and CS compared to β-actin derived from ImageJ shown. All experiments replicated at least twice. Data shown as mean+/−SEM. *, p<0.05 as determined by ANOVA with Tukey's post-hoc multiple comparison analysis.

[3] = infusion; not at lower doses; cited from earlier work
[4] = Physiological response of burned sheep to MPLA infusion (FIG. 7); format: in vivo
Procedure: FIG. 7. MPLA infusion causes transient physiologic changes in burned sheep. Sheep received 20% total body surface area burn followed 24 hours later by vehicle or MPLA ([…]) infusion. Core body temperature, hemodynamics and pulmonary mechanics were measured for 2 hours after initiation of MPLA or vehicle infusions. […] A transient increase in heart rate (HR) and decrease in mean arterial blood pressure (MAP) were also observed in MPLA-treated sheep.
Sheep were instrumented and received a 20% cutaneous burn. At 24 hours after the burn procedure, MPLA (5 ug/kg) was infused in 10 ml of endotoxin-free lactated Ringer's solution over 10 minutes. The sheep developed a transient 1° C. increase in core temperature at 1 hour after the start of infusion (FIG. 7).

S. aureus = test: Systemic (intravenous) S. aureus infection in MPLA-primed mice (FIG. 2); format: in vivo; details: MPLA 20 μg
Procedure: as §1, §2

[5] = MPLA 5 ug/kg, 24 hours after 20% burn
[6] = MPLA 2.5 micrograms/kg (FIG. 7 legend)

With Monophosphoryl Lipid A [MPLA] the survival (C. albicans) was 40%, the survival (Staphylococcus aureus) was “improved survival” and the “temperature, heart rate or mean pulmonary artery pressure” value ([1]; MPLA 5 ug/kg infused over 10 minutes) was “did not change”. For the same substance, the “temperature, heart rate and mean pulmonary artery pressure” value ([1]; MPLA 10 or 30 ug/kg infused over 10 minutes) was “all parameters were increased”, the ATP production [2] was “enhances ATP production” and the “macrophage metabolism: glycolysis and oxygen consumption” value [2] was “increased glycolysis and oxygen consumption”. The mitochondrial biogenesis [2] was “enhances”, the “MPLA dose at which humans show subjective changes consistent with systemic inflammation” value [3] was 10 µg/kg and the “cardiac index, mean arterial pressure, central venous pressure, stroke volume, systemic vascular resistance, peak and pause airway pressures and PaO2/FiO2 ratio” value [4, 5] was “not significantly changed”. The “heart rate and pulmonary artery pressure” value [4, 5] was “not significantly altered”, the “increase in core temperature” value ([4]; MPLA 5 ug/kg, 24 hours after 20% burn, transient, at 1 hour after start of infusion) was 1 °C and the “cardiac index (CI), central venous pressure (CVP) and systemic vascular resistance (SVRI)” value [4, 6] was “minimally impacted”. The “mean arterial blood pressure (MAP)” value [4, 6] was “significantly decreased at 45 and 60 minutes”, the “time of peak core body temperature after initiation of infusion” value [4, 6] was 75 min and the core body temperature ([4]; MPLA 2.5 micrograms/kg (FIG. 7 legend), from 45 minutes, still elevated at 2 hours) was “increased core body temperature”. The “heart rate (HR)” value ([4]; MPLA 2.5 micrograms/kg (FIG. 7 legend), returned to baseline at 90 minutes) was “significantly increased at 30-75 minutes”, the safe dose ([4]; burned sheep, infusion over 10 minutes) was 5 µg/kg and the infection-induced hypothermia (S. aureus; FIG. 2 C-F, H) was “attenuated infection-induced hypothermia”. The kidney injury (S. aureus; FIG. 2 C-F, H) was “less kidney injury”, the plasma cytokine concentrations (S. aureus; FIG. 2 C-F, H) was “lower plasma cytokine concentrations” and the survival (S. aureus; intravenous S. aureus 1×10^8 CFU) was 90%.
